Experimental data taken from patent US20090233921A1, “THERAPEUTIC CYCLOPENTANE DERIVATIVES” (ALLERGAN, INC., priority 2008, published 2009).

System: lashes and adjacent hairs of patients having glaucoma
Assay: Clinical observation of lashes and adjacent hairs in glaucoma patients treated in one eye
Type: in vivo, human
Description: In the course of treating patients having glaucoma, treatment may only be appropriate in one eye. […] The lash appearance on the lids of the treated eyes would have appeared quite attractive if it represented a bilateral phenomenon. As a result of its asymmetric nature, the long lashes on one side could be construed as disturbing from a cosmetic standpoint. A systemic examination was preformed as a result of the asymmetric phenomenon. It soon became apparent that this altered appearance was not an isolated finding.
The changes in the lashes were apparent on gross inspection in several patients once attention was focused on the issue. In those with light colored hair and lashes, the differences were only seen easily with the aid of the high magnification and lighting capabilities of the slit lamp biomicroscope. In the course of glaucoma follow-up examination, attention is generally immediately focused on the eye itself. As a result of the high power magnification needed only one eye is seen at a time and the eye is seen at a high enough power that the lashes are not in focus. At these higher powers, any lash asymmetry between the two eyes is not likely to be noticed except by careful systematic comparison of the lashes and adjacent hairs of the eyelids of the two eyes. […]

`CCNC(=O)CCC/C=C\C[C@@H]1[C@@H](/C=C/[C@@H](O)CCc2ccccc2)[C@H](O)C[C@@H]1O` [bimatoprost] was tested, and the “lash appearance, treated eye versus non-treated eye” value (a patient treated in one eye) was “longer, thicker, and fuller in the treated eye than in the non-treated eye” and the “differences in lashes and adjacent hairs of the treated side” value (all patients taking the drug on a unilateral basis for longer than 6 months) was “Definite differences could be identified to varying degrees”.
